Experimental data published in US20070167432A1, “Tricyclic triazolobenzapine derivative produced as novel crystalline substance” (MEIJI SEILA KAISHA, LTD, priority 2003, published 2007).

Tests used:
[1] = Absorbability test: oral administration to cynomolgus monkeys, Compound B in blood plasma as indicator; assay type: in vivo
Description: The α-type crystalline material obtained in Comparative Example 1 or the β-type crystalline material obtained in Example 1 was suspended in a 1 wt. % aqueous solution of methyl cellulose. Each suspension was orally administered to a group of cynomolgus monkeys that had not been fed one overnight (5 mg/kg, n=5). The two samples were compared, in terms of the change of Compound B concentration of blood plasma and the area under the medicine concentration in blood plasma-time curve (AUC), to evaluate the difference in absorbability between the samples. The Compound B concentration of blood plasma derived from the blood sample was determined in the following manner.
By centrifugally separating the blood (1 mL) taken from a saphenous vein (4° C., 3000 rpm, 10 minutes) in the presence of heparin, blood plasma was obtained. To this blood plasma (100 μL), a methanol solution containing an internal standard substance (sodium 7-methyl-4(5H),10-dioxo-2H-1,2,3-triazolo [4,5-c][1]benzazepine) (100 ng/mL, 100 μL) and methanol (400 μL) were added, and the mixture was stirred and was then subjected to centrifugal separation (4° C., 10000 rpm, 5 minutes). Methanol (300 μL) was added again to the supernatant, and the mixture was centrifugally separated under the same conditions as the previous manner. […]
Fluorescence detection wavelengths: Ex 270 nm, Em 466 nm […]

[2] = Solubility test in water (37° C.), Compound A concentration of filtrate by HPLC; assay type: physicochemical
Description: By using, as test samples, the β-type crystalline material obtained in Example 1 and the α-type crystalline material obtained in Comparative Example 1, a water (37° C.) solubility test was carried out. The test sample (about 10 mg) was added to 100 mL of water (37° C.), and the mixture was stirred at 1000 rpm. The mixture was sampled at some points of time, and each sample taken out was filtered through a membrane filter (Millex LG-13 manufactured by Millipore Corp, Japan). The compound A concentration of each filtrate was determined with high-performance liquid chromatography (HPLC). The measurement conditions were as follows:
HPLC: LC-10vp series (manufactured by Shimadzu Corp. Japan)
System controller: CBM-10A
Measurement wavelength: 246 nm
Column: Mightysil RP-18 GP 4.6×250 mm (manufactured by Kanto Chemical Co., Inc., Japan)
Column temperature: Fixed temperature at around 40° C.
Mobile phase: Mixture of methanol and water (55:45)
Amount of influent: 10 μL
Internal standard solution: Acetonitrile solution of propyl paraoxybenzoate (conc.200 μg/mL)

## COc1cc2[nH]c(=O)c3nn(C(OC(=O)OC(C)C)C(C)C)nc3c(=O)c2cc1OC (stereo not drawn) [β-type crystalline material, 2-(1-Isopropoxycarbonyloxy-2-methylpropyl)-7,8-dimethoxy-4(5H),10-dioxo-2H-1,2,3-triazolo[4,5-c][1]benzazepine]
[1]; cynomolgus monkeys, fasted overnight, oral 5 mg/kg, suspension in 1 wt. % aqueous methyl cellulose, n=5, FIG. 6
  Compound B concentration of blood plasma compared with the α-type-crystalline-material-administered group: higher values
[2]; water 37° C.
  water solubility compared with the α-type crystalline material: higher

## COc1cc2[nH]c(=O)c3nn(C(OC(=O)OC(C)C)C(C)C)nc3c(=O)c2cc1OC (stereo not drawn) [α-type crystalline material, 2-(1-Isopropoxycarbonyloxy-2-methylpropyl)-7,8-dimethoxy-4(5H),10-dioxo-2H-1,2,3-triazolo[4,5-c][1]benzazepine]
[1]; background statement, administered as it is
  absorption into organisms: cannot be easily absorbed
[2]; background statement from applicant's experiments, solvents such as water
  solubility in solvents such as water: sparingly soluble
